Test results from patent US11739162B2, “Side chain modified peptoids useful as structure-stabilizing coatings for biomaterials” (Brookhaven Science Associates, LLC, priority 2019, dated 2023).

Tests used:
[1] = test system: deoxyribonuclease I (DN); test: Nuclease degradation assays (AGE, TEM, DLS); conditions: DN 15 μg/mL, 30 min, 37° C., N/P 0.5
Experimental: The samples were incubated at 37° C. for 30 min at 650 rpm on a thermal cycler (Eppendorf) and characterized using AGE and negative-stained TEM imaging.

[2] = test system: octahedra-shaped DNA origamis (OCs); test: Negative-stained TEM imaging of peptoid-coated OCs; assay type: physicochemical; conditions: N/P 0.5, 0.25, 0.1; TAE 12.5 mM MgCl2
Experimental: Preparation of peptoid-coated OCs. The synthesized peptoids were dissolved in deionized water at a concentration of 10 mM and stored at 4° C.
Negative-stained TEM imaging. […] In brief, […] of the peptoid-coated OC (5-10 nM) solution was dropped on a carbon film for 1-3 min and the residual liquid was removed with a piece of filter paper. After that, the grid was washed with […] of deionized water followed by staining with […] of 2 wt % uranyl acetate for 15 sec. The excess liquid was removed with filter papers. TEM imaging was performed on a JEOL 1400 TEM with an acceleration voltage of 120 kV.

[3] = test system: 15-bp dsDNA; test: Real-time SYBR Green I (SG) fluorescence assay of duplex DNA (dsDNA); assay type: binding; conditions: dsDNA/peptoid complexes
Experimental: A15-bp dsDNA was designed with a sequence of 5′-[…]-3′ (SEQ ID NO: 124) with a complementary sequence of 5′-[…]-3′ (SEQ ID NO: 125). The dsDNA (500 μM) was formed in PBS (1×) buffer and cooled from 70° C. to room temperature over 11 h. Next, the dsDNA (100 nM) solution was mixed with different peptoid solutions at varied concentrations in PBS overnight at room temperature. Prior to measuring fluorescence, SG (1×) was added to the dsDNA/peptoid mixtures for 2 h at room temperature. The fluorescence signal was recorded from 37° C. to 85° C. at a step of 0.03° C./sec by LightCycler 480. The concentrations of only peptoids in solution were the same as those in the N/P of 8, which were 3.43 μM for PE1, PE3, PE4, PE5, and 1.85 μM for PE2, respectively.

[4] = test system: trypsin; test: Fluorescence assay for tryptic digestion of BSA; assay type: biochemical; conditions: trypsin 50 nM, 37° C.
Experimental: First, NHS-fluorescein (240 μM) and NHS-PEG-azide (60 μM) was mixed with BSA (10 μM) in PBS (1×) buffer for 3 h at room temperature. The solution was purified 8 times with PBS using a 50 kDa filter and centrifuged at 3000 rcf and at 4° C. Next, the DBCO-modified single-stranded DNA (ssHy, 5′-[…]/3DBCO/, 250 μM) (SEQ ID NO: 1) was mixed with the BSA solution (10 μM) overnight (˜12 h) at 4° C. The solution was purified 8 times with PBS using a 50 kDa filter and centrifuged at 3000 rcf at 4° C. Finally, the surface-modified BSA (200 nM) was added to the OCs (40 nM) and the solution was cooled down from 45° C. to room temperature over a time course of 60 h. The solution was purified 2 times with TAE (1×) buffer containing 12.5 mM MgCl2 using a 100 kDa filter and centrifuged at 400 rcf and at 4° C.
(1) The fluorescein-modified BSA (80 nM) solution without OCs was incubated at 37° C. in the presence or absence of trypsin (50 nM) overnight ˜12 h prior to fluorescence measurement. Fluorescence spectra were measured with excitation and emission wavelengths of 490 nm and 510-750 nm, respectively and a step size of 2 nm. […] The fluorescence kinetics were measured at λex and λem of 490 nm and 525 nm, respectively and time interval of 3 min. Fluorescence spectra were measured after 15 h at excitation and emission wavelengths of 490 nm and 510-800 nm, respectively and a step size of 2 nm.

Compound | OC structure after incubation with DN (TEM) [1] | morphology / aggregation of peptoid-coated OCs (TEM) [2] | relative performance in raising the Tm of the dsDNA (ranking) [3] | fluorescence enhancement of fluorescein labeled BSA in the presence of trypsin [4] [%]
COCCOCCOCCN(CC(N)=O)C(=O)CN(CCOC)C(=O)CN(CCOCCOCCOC)C(=O)CN(CCN)C(=O)CN(CCOCCOCCOC)C(=O)CN(CCOC)C(=O)CN(CCOCCOCCOC)C(=O)CN(CCN)C(=O)CN(CCOCCOCCOC)C(=O)CN(CCOC)C(=O)CN(CCOCCOCCOC)C(=O)CN(CCN)C(=O)CN(CCOCCOCCOC)C(=O)CN(CCOC)C(=O)CN(CCOCCOCCOC)C(=O)CN(CCN)C(=O)CN(CCOCCOCCOC)C(=O)CN(CCOC)C(=O)CN(CCOCCOCCOC)C(=O)CN(CCN)C(=O)CN(CCOCCOCCOC)C(=O)CN(CCOC)C(=O)CN(CCOCCOCCOC)C(=O)CNCCN [PE3, Nae6-Nte12 brush] | some extents of capability to preserve the origami structure | less aggregation than PE1 | Tm (dsDNA/PE3)>Tm (dsDNA/PE5) | 
COCCOCCOCCN(CC(N)=O)C(=O)CN(CCOCCOCCOC)C(=O)CN(CCOCCOCCOC)C(=O)CN(CCOCCOCCOC)C(=O)CN(CCOCCOCCOC)C(=O)CN(CCOCCOCCOC)C(=O)CN(CCN)C(=O)CN(CCN)C(=O)CN(CCN)C(=O)CN(CCN)C(=O)CN(CCN)C(=O)CNCCN [PE4, Nae6-Nte6 block] | some extents of capability to preserve the origami structure |  | Tm (dsDNA/PE2)>Tm (dsDNA/PE1)>Tm (dsDNA/PE4) | 
fluorescein labeled BSA: bovine serum albumin modified with fluorescein, trypsin substrate [reference compound] |  |  |  | 85
